Laboratory results taken from patent US10098350B2, “Fungicidal amides” (E. I. DU PONT DE NEMOURS AND COMPANY, priority 2013, dated 2018).

Experiments:
Format in all cases: in vivo
Septoria tritici = assay: Test C: wheat seedlings sprayed with test suspension, inoculated with Septoria tritici (wheat leaf blotch), visual disease rating
Excerpt: (§1) General protocol for preparing test suspensions for Tests A-E: the test compounds were first dissolved in acetone in an amount equal to 3% of the final volume and then suspended at the desired concentration (in ppm) in acetone and purified water (50/50 mix by volume) containing 250 ppm of the surfactant Trem® 014 (polyhydric alcohol esters). The resulting test suspensions were then used in Tests A-E. Samples were applied to plants at either a 10 ppm (**), 40 ppm, 50 ppm (*) or 200 ppm (#) test solution to the point of run-off on the test plants with the equivalent of a rate of 40 g ai/ha, 160 g ai/ha, 200 g ai/ha, or 800 g ai/ha, respectively.
The test suspension was sprayed to the point of run-off on wheat seedlings. The following day the seedlings were inoculated with a spore suspension of Septoria tritici (the causal agent of wheat leaf blotch) and incubated in a saturated atmosphere at 24° C. for 48 h, and then moved to a growth chamber at 20° C. for 21 days, after which time visual disease ratings were made.
(§2) Results for Tests A-E are given in Table A. In the Table, a rating of 100 indicates 100% disease control and a rating of 0 indicates no disease control (relative to the controls). A dash (-) indicates no test results.

[1] = test system: Erysiphe graminis f. sp. tritici; assay: Test E: wheat seedlings sprayed with test suspension, inoculated with Erysiphe graminis f. sp. tritici (wheat powdery mildew), visual disease rating
Excerpt: as §1
The test suspension was sprayed to the point of run-off on wheat seedlings. The following day the seedlings were inoculated with a spore dust of Erysiphe graminis f. sp. tritici, (the causal agent of wheat powdery mildew) and incubated in a growth chamber at 20° C. for 7 or 8 days, after which time visual disease ratings were made.
as §2

[2] = test system: Puccinia recondite f. sp. tritici; assay: Test D: wheat seedlings sprayed with test suspension, inoculated with Puccinia recondite f. sp. tritici (wheat leaf rust), visual disease rating
Excerpt: as §1
The test suspension was sprayed to the point of run-off on wheat seedlings. The following day the seedlings were inoculated with a spore suspension of Puccinia recondite f. sp. tritici; (the causal agent of wheat leaf rust) and incubated in a saturated atmosphere at 20° C. for 24 h, and then moved to a growth chamber at 20° C. for 6 days, after which time visual disease ratings were made.
as §2

[3] = Cmpd. No. marked '*' (other test rate; meaning of mark not shown)
[4] = Cmpd. No. marked '**' (other test rate; meaning of mark not shown)
[5] = Cmpd. No. unmarked, 100 = 100% disease control, 0 = no control relative to controls

## Cc1ccc(CN(C(=O)c2c(C(F)F)nn(C)c2F)C2CC2)cc1-n1ccc(C(F)(F)F)n1 [compound 87]
Septoria tritici; [3]
  Test C rating (% disease control): 98%
[1]; [3]
  Test E rating (% disease control): 92%
[2]; [3]
  Test D rating (% disease control): 80%

## COc1cc(CN(C(=O)c2c(C(F)F)nn(C)c2F)C2CC2)ccc1-n1ccc(C(F)(F)F)n1 [compound 96]
Septoria tritici; [4]
  Test C rating (% disease control): 100%
[1]; [4]
  Test E rating (% disease control): 73%
[2]; [4]
  Test D rating (% disease control): 99%

## CC(C)c1ccc(-n2ccc(C(F)(F)F)n2)cc1C(C)N(C(=O)c1cn(C)nc1C(F)F)C1CC1 (stereo not shown) [compound 82]
Septoria tritici; [3]
  Test C rating (% disease control): 88%
[1]; [3]
  Test E rating (% disease control): 87%
[2]; [3]
  Test D rating (% disease control): 0%

## Cn1cc(C(=O)N(Cc2cc(-n3ccc(C(F)(F)F)n3)ncc2Cl)C2CC2)c(C(F)F)n1 [compound 75]
Septoria tritici; [4]
  Test C rating (% disease control): 24%
[1]; [4]
  Test E rating (% disease control): 0%
[2]; [4]
  Test D rating (% disease control): 45%

## Cn1cc(-c2cnc(CN(C(=O)c3c(C(F)F)nn(C)c3F)C3CC3)c(Br)c2)cn1 [compound 110]
Septoria tritici; [3]
  Test C rating (% disease control): 90%
[1]; [3]
  Test E rating (% disease control): 40%
[2]; [3]
  Test D rating (% disease control): 94%

## Cn1nc(C(F)F)c(C(=O)N(Cc2cccc(-n3ccc(C(F)(F)F)n3)c2Cl)C2CC2)c1F [compound 136]
Septoria tritici; [3]
  Test C rating (% disease control): 100%
[1]; [3]
  Test E rating (% disease control): 87%
[2]; [3]
  Test D rating (% disease control): 99%

## CC(C)c1ccc(-n2ccc(C(F)(F)F)n2)cc1CN(C(=O)c1c(C(F)F)nn(C)c1F)C1CC1 [compound 88]
Septoria tritici; [3]
  Test C rating (% disease control): 94%
[1]; [3]
  Test E rating (% disease control): 98%
[2]; [3]
  Test D rating (% disease control): 99%

## C=C(C)c1ccc(-n2ccc(C(F)(F)F)n2)cc1C(C)N(C(=O)c1c(C(F)F)nn(C)c1F)C1CC1 (racemic) [compound 123]
Septoria tritici; [3]
  Test C rating (% disease control): 100%
[1]; [3]
  Test E rating (% disease control): 93%
[2]; [3]
  Test D rating (% disease control): 92%

## CC(c1cccc(-n2ccc(C(F)(F)F)n2)c1Cl)N(C(=O)c1c(C(F)F)nn(C)c1F)C1CC1 (stereo not shown) [compound 79]
Septoria tritici; [3]
  Test C rating (% disease control): 99%
[1]; [3]
  Test E rating (% disease control): 98%
[2]; [3]
  Test D rating (% disease control): 74%

## C=C(C)c1cc(CN(C(=O)c2c(C(F)F)nn(C)c2F)C2CC2)ccc1-n1ccc(C(F)(F)F)n1 [compound 102]
Septoria tritici; [4]
  Test C rating (% disease control): 100%
[1]; [4]
  Test E rating (% disease control): 13%
[2]; [4]
  Test D rating (% disease control): 98%

## Cn1nc(C(F)F)c(C(=O)N(Cc2ncc(-n3ccc(C(F)(F)F)n3)cc2Br)C2CC2)c1F [compound 91]
Septoria tritici; [4]
  Test C rating (% disease control): 100%
[1]; [4]
  Test E rating (% disease control): 73%
[2]; [4]
  Test D rating (% disease control): 98%

## Cc1ccc(C(C)N(C(=O)c2c(C(F)F)nn(C)c2F)C2CC2)cc1-n1ccc(C(F)(F)F)n1 (stereo not shown) [compound 73]
Septoria tritici; [5]
  Test C rating (% disease control): 99%
[1]; [5]
  Test E rating (% disease control): 90%
[2]; [5]
  Test D rating (% disease control): 85%

## Cn1cc(C(=O)N(Cc2cc(Cl)cc(-n3ccc(C(F)(F)F)n3)c2)C2CC2)c(C(F)F)n1 [compound 112]
Septoria tritici; [3]
  Test C rating (% disease control): 94%
[1]; [3]
  Test E rating (% disease control): 40%
[2]; [3]
  Test D rating (% disease control): 54%

## Cn1nc(C(F)F)c(C(=O)N(Cc2ncc(-n3ccc(C(F)(F)F)n3)cc2Cl)C2CC2)c1F [compound 122]
Septoria tritici; [4]
  Test C rating (% disease control): 96%
[1]; [4]
  Test E rating (% disease control): 87%
[2]; [4]
  Test D rating (% disease control): 99%

## CC(c1ccc(Cl)c(-n2ccc(C(F)(F)F)n2)c1)N(C(=O)c1c(C(F)F)nn(C)c1F)C1CC1 (stereo not shown) [compound 74]
Septoria tritici; [5]
  Test C rating (% disease control): 99%
[1]; [5]
  Test E rating (% disease control): 93%
[2]; [5]
  Test D rating (% disease control): 27%

## CC(C)c1cc(CN(C(=O)c2c(C(F)F)nn(C)c2F)C2CC2)ccc1-n1ccc(C(F)(F)F)n1 [compound 116]
[1]; [4]
  Test E rating (% disease control): 69%
[2]; [4]
  Test D rating (% disease control): 98%

## Cn1cc(C(=O)N(Cc2ncc(-n3ccc(C(F)(F)F)n3)cc2Br)C2CC2)c(C(F)F)n1 [compound 16]
Septoria tritici; [3]
  Test C rating (% disease control): 100%
[1]; [3]
  Test E rating (% disease control): 56%
[2]; [3]
  Test D rating (% disease control): 67%

## CC(c1cc(Cl)cc(-n2ccc(C(F)(F)F)n2)c1)N(C(=O)c1c(C(F)F)nn(C)c1F)C1CC1 (stereo not shown) [compound 54]
Septoria tritici; [3]
  Test C rating (% disease control): 96%
[1]; [3]
  Test E rating (% disease control): 93%
[2]; [3]
  Test D rating (% disease control): 99%

## CC(c1ncc(-n2ccc(C(F)(F)F)n2)cc1Cl)N(C(=O)c1c(C(F)F)nn(C)c1F)C1CC1 (stereo not shown) [compound 103]
Septoria tritici; [4]
  Test C rating (% disease control): 98%
[1]; [4]
  Test E rating (% disease control): 94%
[2]; [4]
  Test D rating (% disease control): 98%

## Cc1cc(-n2ccc(C(F)(F)F)n2)cnc1CN(C(=O)c1c(C(F)F)nn(C)c1F)C1CC1 [compound 81]
Septoria tritici; [4]
  Test C rating (% disease control): 94%
[1]; [4]
  Test E rating (% disease control): 81%
[2]; [4]
  Test D rating (% disease control): 98%

## CC(c1ncc(-n2cccn2)cc1Cl)N(C(=O)c1c(C(F)F)nn(C)c1F)C1CC1 (racemic) [compound 101]
Septoria tritici; [4]
  Test C rating (% disease control): 96%
[1]; [4]
  Test E rating (% disease control): 79%
[2]; [4]
  Test D rating (% disease control): 82%

## CC(c1ncc(-n2ccc(Br)n2)cc1Cl)N(C(=O)c1c(C(F)F)nn(C)c1F)C1CC1 (racemic) [compound 89]
Septoria tritici; [4]
  Test C rating (% disease control): 100%
[1]; [4]
  Test E rating (% disease control): 81%
[2]; [4]
  Test D rating (% disease control): 99%

## CC(c1ncc(-n2cc(Br)cn2)cc1Cl)N(C(=O)c1c(C(F)F)nn(C)c1F)C1CC1 (stereo not shown) [compound 78]
Septoria tritici; [4]
  Test C rating (% disease control): 100%
[1]; [4]
  Test E rating (% disease control): 92%
[2]; [4]
  Test D rating (% disease control): 94%

## Cn1nc(C(F)F)c(C(=O)N(Cc2cc(-n3ccc(C(F)(F)F)n3)ncc2Cl)C2CC2)c1F [compound 92]
[1]; [4]
  Test E rating (% disease control): 0%
[2]; [4]
  Test D rating (% disease control): 67%

## CC(c1ncc(-n2ccc(-c3ccccc3)n2)cc1Cl)N(C(=O)c1c(C(F)F)nn(C)c1F)C1CC1 (racemic) [compound 90]
Septoria tritici; [4]
  Test C rating (% disease control): 99%
[1]; [4]
  Test E rating (% disease control): 86%
[2]; [4]
  Test D rating (% disease control): 99%

## Cc1cc(CN(C(=O)c2c(C(F)F)nn(C)c2F)C2CC2)ccc1-n1ccc(C(F)(F)F)n1 [compound 93]
Septoria tritici; [4]
  Test C rating (% disease control): 100%
[1]; [4]
  Test E rating (% disease control): 69%
[2]; [4]
  Test D rating (% disease control): 99%

## Cn1nc(C(F)F)c(C(=O)N(Cc2ncc(-n3ccc(C(F)(F)F)n3)cc2C2CC2)C2CC2)c1F [compound 114]
Septoria tritici; [4]
  Test C rating (% disease control): 100%
[1]; [4]
  Test E rating (% disease control): 92%
[2]; [4]
  Test D rating (% disease control): 100%
